According to US4725578A, “Compounds having therapeutic effect and the preparation thereof” (Tobishi Pharmaceutical Co., Ltd., priority 1986, dated 1988):
“Also recorded” adds a separate entry of the source.

Assays:
P-388 cells = test: Antineoplastic action against implanted P-388 cells (ip-ip), survival T/C; format: in vivo, CDFl mice; settings: for T/C % (Treatment/Control %): Table 6, P388, intraperitoneal
Description: To the peritoneal cavity of each group of mice consisting of six CDFl mice per group, 10^6 /0.1 ml of P-388 cells or 10^5 /0.1 ml of L-1210 cells were implanted. […]
In the Table, the symbol T/C % means Treatment/Control %, that is the increase in life when the control is 100. […] This method is used in the screening of U.S. National Cancer Institute.
(§1) In Table 7, the symbol "i.P.-i.P." means that the tumor cells are implanted intraperitoneally and the compounds being tested are also administered intraperitoneally. The symbol "TR" is the therapeutic ratio obtained by dividing the dose which provides a maximum T/C value, by the dose which provides a minimum T/C value.

MM2 = MM2 (ip-ip), survival T/C; format: in vivo, mice; settings: for T/C / mice living more than 60 days (60<): additional tests, MM2 (ip-ip); for effectiveness against MM2: (see Table 7); for mice continuing to live more than 60 days after implantation (60<): Table 7, MM2 (i.P. - i.P.)
Description: (§2) In the Table, the symbol T/C % means Treatment/Control %, that is the increase in life when the control is 100. The values are obtained by implanting tumor cells to groups of mice (or rats), administering the compound being tested in various amounts every 24 hours after the implantation of the tumor cells and then calculating the ratio, the median survival time of the group to which the compound has been administered to the survival of the control, multiplied by a factor of 100. This method is used in the screening of U.S. National Cancer Institute. […]
as §1
The term in Table 7, last column "3/6 60<", means that 3 mice out of 6 mice continue to live more than 60 days after the implantation of the tumor cells.

[1] = Toxicity test, lethal dose (Litchfield-Wilcoxon); format: in vivo, male 4-weeks CD-1 (ICR) mice; settings: suspension in 0.5% CMC, 7 days observation
Description: With respect to the compounds of this invention, the lethal dose was determined as follows.
By using male 4-weeks CD-1 (ICR) mice consisting of 5 to 10 mice per group, the desired amount of each compound of this invention was suspended in 0.5% CMC solution and the resultant suspension was administered to each mouse intraperitoneally or intravenously. Observing the life or death as well as the general symptome during 7 days after the administration of the compounds, the value of LD50 for each compounds was estimated from the lethal population observed on the basis of the Litchfield-Wilcoxon method.

P 388 [2] = test: P 388 (ip-iv), survival T/C; format: in vivo, mice
Description: (§3) In the Table, the symbol T/C % means Treatment/Control %, that is the increase in life when the control is 100. The values are obtained by implanting tumor cells to groups of mice (or rats), administering the compound being tested in various amounts every 24 hours after the implantation of the tumor cells and then calculating the ratio, the median survival time of the group to which the compound has been administered to the survival of the control, multiplied by a factor of 100. This method is used in the screening of U.S. National Cancer Institute.
(§4) In Table 9, "iv" and "sc" means that the administration of the compounds is carried out intravenously and the implantation of the tumor cells is carried out subcutaneously.

P 388 [3] = test: P 388 (sc-iv), survival T/C; format: in vivo, mice
Description: as §3, §4

[4] = Neuropharmacological multidimentional observation (modified Arwin and Smith method); format: in vivo, 4-weeks CD-1 (IRC) mice; settings: intraperitoneal, 1 to 20 mg/kg, observed every 30 minutes for 180 minutes, compared with patterns of known medicines
Description: In this test, other pharmacological effects which may be obtained by these compounds were investigated.
Each compound of the invention was intraperitoneally administered to 4-weeks CD-1 (IRC) mice (Nippon Charles Liver K.K.) in the dose of 1 to 20 mg/kg with using mice groups consisting of three mice per group. […] The observation was carried out according to the modified Arwin method and Smith method, i.e., neuropharmacological multidimentional observation method.
Making a comparison between the symptom observed and the pattern of the pharmacological action due to the known medicines, it has been discovered that each compound of the invention has the following pharmacological effect.

L-1210 cells = test: Antineoplastic action against implanted L-1210 cells (ip-ip), survival T/C; format: in vivo, CDFl mice
Description: In this animal test, the antineoplastic action against the implanted tumor was examined in lower animals, in vivo, in respect of the compounds according to the present invention, by using CDFl mice.
To the peritoneal cavity of each group of mice consisting of six CDFl mice per group, 10^6 /0.1 ml of P-388 cells or 10^5 /0.1 ml of L-1210 cells were implanted. […] While to the control groups of CDFl mice, P-388 and L-1210 cells were implanted in the same manner and they were bred without administration of the compounds.
as §3, §1

B-16 melanoma = test: B16 melanoma (ip-ip), survival T/C; format: in vivo, mice; settings: for effectiveness against B-16 melanoma: (see Table 7)
Description: as §2, §1

Colon 26 = Colon 26 (ip-ip), survival T/C; format: in vivo; settings: 4 mg/kg × 9
Description: as §3

Yoshida sarcoma = Yoshida sarcoma (ip-ip), survival T/C; format: in vivo
Description: as §3

MOPC-104E = MOPC-104E (ip-ip), survival T/C; format: in vivo; settings: 2 mg/kg × 9 times
Description: as §3

Erlich carcinoma = Erlich carcinoma (sc-ip), inhibition; format: in vivo; settings: 4 mg/kg × 11, after 14 days
Lewis Lung Carcinoma = Lewis Lung Carcinoma (sc-ip), inhibition; format: in vivo; settings: 8 mg/kg × 11, after 17 days
Colon. 38 = Colon. 38 (sc-ip), inhibition; format: in vivo; settings: 8 mg/kg × 11, after 17 days

| SMILES | T/C % (Treatment/Control %) (P-388 cells; dose 10 mg/kg) [%] | LD50 and 95% Confidence Limit ([1]; intravenous) | T/C (P 388 [2]; 5.56 mg/kg × 9) [%] | T/C % (Treatment/Control %) (P-388 cells; dose 0.05 mg/kg) [%] | T/C % (Treatment/Control %) (P-388 cells; dose 0.5 mg/kg) [%] | T/C % (Treatment/Control %) (P-388 cells; dose 2 mg/kg) [%] | P388 (i.P. - i.P.) T/C (%) (P-388 cells; Table 7, dose 0.05 mg/kg) | P388 (i.P. - i.P.) T/C (%) (P-388 cells; Table 7, dose 0.5 mg/kg) | P388 (i.P. - i.P.) T/C (%) (P-388 cells; Table 7, dose 2 mg/kg) | P388 (i.P. - i.P.) T/C (%) (P-388 cells; Table 7, dose 5 mg/kg) | L1210 (i.P. - i.P.) T/C (%) (L-1210 cells; Table 7, dose 0.5 mg/kg) | L1210 (i.P. - i.P.) T/C (%) (L-1210 cells; Table 7, dose 2 mg/kg) | effectiveness against B-16 melanoma (B-16 melanoma) | B16 (i.P. - i.P.) T/C (%) (B-16 melanoma; Table 7, dose 0.5 mg/kg) | B16 (i.P. - i.P.) T/C (%) (B-16 melanoma; Table 7, dose 2 mg/kg) | B16 (i.P. - i.P.) T/C (%) (B-16 melanoma; Table 7, dose 4 mg/kg) | effectiveness against MM2 (MM2) | MM2 (i.P. - i.P.) T/C (%) (MM2; Table 7, dose 0.5 mg/kg) | MM2 (i.P. - i.P.) T/C (%) (MM2; Table 7, dose 2 mg/kg) | further results |
| --- | --- | --- | --- | --- | --- | --- | --- | --- | --- | --- | --- | --- | --- | --- | --- | --- | --- | --- | --- | --- |
| COc1ccc(C[C@H]2C(=O)N[C@H](C)C(=O)N(C)[C@@H]3Cc4ccc(cc4)Oc4cc(ccc4O)C[C@H](C(=O)N[C@@H](C)C(=O)N[C@@H](C)C(=O)N2C)N(C)C3=O)cc1.COc1ccc(C[C@H]2C(=O)N[C@H](C)C(=O)N(C)[C@@H]3Cc4ccc(cc4)Oc4cc(ccc4O)C[C@H](C(=O)N[C@@H](C)C(=O)N[C@@H](C)C(=O)N2C)N(C)C3=O)cc1.COc1ccc(C[C@H]2C(=O)N[C@H](C)C(=O)N(C)[C@@H]3Cc4ccc(cc4)Oc4cc(ccc4O)C[C@H](C(=O)N[C@@H](C)C(=O)N[C@@H](C)C(=O)N2C)N(C)C3=O)cc1.COc1ccc(C[C@H]2C(=O)N[C@H](C)C(=O)N(C)[C@@H]3Cc4ccc(cc4)Oc4cc(ccc4O)C[C@H](C(=O)N[C@@H](C)C(=O)N[C@@H](C)C(=O)N2C)N(C)C3=O)cc1.O.O.O.O.O [TPC-A] | 187.4 | 34.0(28.1-41.2) mg/kg | 121.4 |  |  |  |  |  |  |  |  |  |  |  |  |  |  |  |  | T/C (MM2; 2.78 mg/kg × 9): 138.7%; T/C (MM2; 5.56 mg/kg × 9): 231.2%; mice living more than 60 days (60<) (MM2; 5.56 mg/kg × 9): 2/6; T/C (MM2; 6.94 mg/kg × 9): 184.3%; mice living more than 60 days (60<) (MM2; 6.94 mg/kg × 9): 1/7; T/C (P 388 [3]; 5 mg/kg × 7): 179.6%; mice living more than 60 days (60<) (P 388 [3]; 5 mg/kg × 7): 2/7; T/C (P 388 [3]; 7 mg/kg × 7): 153.7%; mice living more than 60 days (60<) (P 388 [3]; 7 mg/kg × 7): 1/7; T/C (P 388 [3]; 10 mg/kg × 7): 127.8%; Pharmacological effect estinated [4]: emetic action; also recorded: anorexigenic action; also recorded: psychotropic action; also recorded: vasoconstrictive; also recorded: papaverine action; also recorded: antiper- |
| CCCCCCOc1ccc2cc1Oc1ccc(cc1)CC1C(=O)N(C)C(C2)C(=O)NC(C)C(=O)NC(C)C(=O)N(C)C(Cc2ccc(OC)cc2)C(=O)NC(C)C(=O)N1C (stereo not drawn) [Ex. 2, n-hexylether of the compound TPC-A] |  |  |  | 110.3 | 137.3 | 153.5 | 130.4 | 143.5 | 150.0 | 176.1 | 115.6 | 126.6 | effective | 130.5 | 158.2 | 136.2 | effective | 110.3 | 129.3 | T/C % (Treatment/Control %) (P-388 cells; dose 4 mg/kg): 173.0%; L1210 (i.P. - i.P.) T/C (%) (L-1210 cells; Table 7, dose 4 mg/kg): 130.9%; mice continuing to live more than 60 days after implantation (60<) (MM2; dose 2 mg/kg): 3/6; mice continuing to live more than 60 days after implantation (60<) (MM2; dose 4 mg/kg): 1/7; MM2 (i.P. - i.P.) T/C (%) (MM2; Table 7, dose 4 mg/kg): 161.8%; T/C (P 388 [2]; 5 mg/kg × 5): 118.9%; T/C (Colon 26): 133.7%; mice living more than 60 days (60<) (Colon 26): 2/6; T/C (Yoshida sarcoma; 0.1 mg/kg × 5): 129.7%; T/C (Yoshida sarcoma; 0.5 mg/kg × 5): 173.6%; T/C (Yoshida sarcoma; 1 mg/kg × 5): 160.4%; T/C (Yoshida sarcoma; 2.5 mg/kg × 5): 149.5%; T/C (MOPC-104E): 145.3% |
| COc1ccc(CC2C(=O)NC(C)C(=O)N(C)C3Cc4ccc(cc4)Oc4cc(ccc4OC(C)=O)CC(C(=O)NC(C)C(=O)NC(C)C(=O)N2C)N(C)C3=O)cc1 (stereo not drawn) [Ex. 22] | 194.7 | 20.0(15.2-26.3) mg/kg | 171.5 | 133.3 | 155.6 | 168.9 | 133.3 | 155.6 | 168.9 | 175.8 | 110.0 | 114.4 | effective | 116.9 | 128.5 | 147.8 | effective | 102.5 | 109.2 | P388 (i.P. - i.P.) T/C (%) (P-388 cells; Table 7, dose 10 mg/kg): 194.7%; L1210 (i.P. - i.P.) T/C (%) (L-1210 cells; Table 7, dose 0.05 mg/kg): 100.9%; L1210 (i.P. - i.P.) T/C (%) (L-1210 cells; Table 7, dose 5 mg/kg): 120.0%; L1210 (i.P. - i.P.) T/C (%) (L-1210 cells; Table 7, dose 10 mg/kg): 128.9%; B16 (i.P. - i.P.) T/C (%) (B-16 melanoma; Table 7, dose 8 mg/kg): 141.1%; MM2 (i.P. - i.P.) T/C (%) (MM2; Table 7, dose 5 mg/kg): 117.8%; MM2 (i.P. - i.P.) T/C (%) (MM2; Table 7, dose 10 mg/kg): 120.9%; LD50 and 95% Confidence Limit ([1]; intraperitoneal): 18.4(16.9-20.0) mg/kg; T/C (P 388 [2]; 1.11 mg/kg × 9): 112.5%; Inhibition (Erlich carcinoma): 46.9%; Inhibition (Lewis Lung Carcinoma): 65.4%; Inhibition (Colon. 38): 51.9%; Pharmacological effect estinated ([4]; listed as Acetic acid ester of TPC-A): emetic action; also recorded: psychotropic action; also recorded: antidiuretic action |
